pIC50: −log10 of the molar value. Like-named read-outs stand apart in the source and are kept apart here. Residues, ends and D or L forms follow the SMILES beside them.

Assay [1] deals with T1, FL_Reg1 (full-length human Regnase-1) phosphorylation by TBK1 (Homo sapiens, UniProt Q5D1E8).
T1 construct: made in house; host or cells: Expi293 cells
T1 sequence (Q5D1E8 1-599): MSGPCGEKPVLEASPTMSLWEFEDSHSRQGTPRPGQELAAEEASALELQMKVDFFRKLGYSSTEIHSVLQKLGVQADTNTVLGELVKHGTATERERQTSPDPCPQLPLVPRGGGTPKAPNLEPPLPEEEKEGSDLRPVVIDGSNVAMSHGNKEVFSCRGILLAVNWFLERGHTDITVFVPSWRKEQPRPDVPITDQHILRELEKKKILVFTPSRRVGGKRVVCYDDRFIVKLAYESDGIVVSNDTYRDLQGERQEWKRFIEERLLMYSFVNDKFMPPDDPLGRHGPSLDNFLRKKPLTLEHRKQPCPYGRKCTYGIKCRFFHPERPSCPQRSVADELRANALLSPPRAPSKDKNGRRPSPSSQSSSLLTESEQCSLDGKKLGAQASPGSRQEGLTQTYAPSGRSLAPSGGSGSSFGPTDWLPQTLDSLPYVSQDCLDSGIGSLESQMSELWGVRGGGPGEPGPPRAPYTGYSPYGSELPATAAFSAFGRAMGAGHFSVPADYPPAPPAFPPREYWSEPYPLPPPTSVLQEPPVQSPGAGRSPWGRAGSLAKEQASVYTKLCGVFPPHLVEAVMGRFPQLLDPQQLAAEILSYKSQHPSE
In words: Regnase-1 phosphorylation inhibition by compounds (AlphaScreen), TBK1, full-length Regnase-1. Format: biochemical. Put shortly:
(§1)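 FLAG/BirA-tagged human Regnase-1 constructs (full-length, 1–546 or 301–599), expressed in Expi293 cells, were used at 2 nM with compound and phosphorylated by IKKβ or TBK1 with 10 μM ATP, DTT, vanadate and MnCl2 for 2 h at room temperature. Phospho-Regnase-1 was read by AlphaScreen; IC50 came from % inhibition curves normalised to DMSO and Regnase-1-alone signals.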
Background: In Alpha technology, singlet oxygen from a donor bead excites a nearby acceptor bead.

The target in assay [2] is T2, FL_Reg1 (full-length human Regnase-1) phosphorylation by IKKβ (Homo sapiens, UniProt Q5D1E8).
T2 construct: made in house; host or cells: Expi293 cells
T2 sequence (Q5D1E8 1-599): T1 sequence (Q5D1E8 1-599)
Briefly: Regnase-1 phosphorylation inhibition by compounds (AlphaScreen), IKKβ, full-length Regnase-1. In kind it is biochemical. Put shortly:
as §1

Assay [3] has as its target T3, binding between TBK1 and full-length Regnase-1 (FL_Reg1) (Homo sapiens, UniProt Q5D1E8).
T3 construct: made in house; host or cells: Expi293 cells
T3 sequence (Q5D1E8 1-599): T1 sequence (Q5D1E8 1-599)
In words: Inhibition of kinase-Regnase-1 binding by the compounds (AlphaScreen), TBK1. An outline of the steps: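 FLAG-tagged, biotin-acceptor-tagged full-length human Regnase-1 was expressed in Expi293 cells. It was mixed at 2.5 nM with compound, then 2.5 nM IKKβ or TBK1 was added for 2 h at room temperature. Binding was read with anti-FLAG acceptor and glutathione donor beads; IC50 came from dose-response inhibition relative to Regnase-1 alone and DMSO.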

The mark [4] stands for this setting: Table 13, phosphorylation by TBK1, read-out: Phosphorylation inhibition FL_Reg1, 50% inhibition concentration (TBK1).
Where [5] appears, read: Table 14, phosphorylation by IKKβ, read-out: Phosphorylation inhibition FL_Reg1, 50% inhibition concentration (IKKβ).
Where [6] appears, read: Table 13, binding between TBK1 and Regnase-1, read-out: Binding inhibition FL_Reg1, 50% inhibition concentration (TBK1).
Setting [7] is: Table 11, 2 nM Regnase-1, AlphaScreen, read-out: 50% inhibition concentration, Regnase-1 phosphorylation, FL_Reg1, TBK1.
Setting [8] is: Table 11, 2 nM Regnase-1, AlphaScreen, read-out: 50% inhibition concentration, Regnase-1 phosphorylation, FL_Reg1, IKKβ.
Where [9] appears, read: Table 12, 2.5 nM Regnase-1, 2.5 nM TBK1, AlphaScreen, read-out: 50% inhibition concentration, binding between Regnase-1 and TBK1, FL_Reg1.

Consider `CC[C@H](C)[C@@H]1NC(=O)[C@H](CC(N)=O)NC(=O)[C@H](Cc2ccc(O)cc2)NC(=O)[C@H](Cc2c[nH]c3ccccc23)NC(=O)[C@H](CO)NC(=O)[C@H](CC(N)=O)NC(=O)[C@H](CO)NC(=O)[C@H](Cc2ccccc2)NC(=O)[C@H](CC(N)=O)NC(=O)[C@H](C)N(C)C(=O)C[C@@H](C(=O)N2CCCC2)NC(=O)[C@H](Cc2c[nH]c3ccccc23)NC1=O` [PP16] (HELM PEPTIDE1{[meA].N.F.S.N.S.W.Y.N.I.W.D.[C1CCN([*:1])C1]}$PEPTIDE1,PEPTIDE1,1:R1-12:R3$$$V2.0), for which the pIC50 is 4.28 in assay [1] (setting [4]), 4.69 in assay [2] (setting [5]) and 4.69 in assay [3] (setting [6]).
For `CC[C@H](C)[C@@H]1NC(=O)[C@H](CCCCN)NC(=O)[C@H](Cc2ccc(O)cc2)NC(=O)[C@H](Cc2c[nH]c3ccccc23)NC(=O)[C@H](CO)NC(=O)[C@H](CO)NC(=O)[C@H]([C@@H](C)O)NC(=O)[C@@H]2CCCN2C(=O)[C@@H](C)N(C)C(=O)C[C@@H](C(=O)N2CCCC2)NC(=O)[C@H](Cc2c[nH]c3ccccc23)NC1=O` [PP23] (HELM PEPTIDE1{[C[C@H](C(=O)[*:2])N(C)[*:1]].P.T.S.S.W.Y.K.I.W.D.[C1CCN([*:1])C1]}$PEPTIDE1,PEPTIDE1,1:R1-11:R3$$$V2.0), the figures for the pIC50 in assay [1] (setting [4]), in assay [2] (setting [5]) and in assay [3] (setting [6]) were 4.73, 4.59 and 5.04, respectively.
The corresponding values for `CC[C@H](C)[C@@H]1NC(=O)[C@H](CC(N)=O)NC(=O)[C@H]([C@@H](C)CC)NC(=O)[C@H](Cc2ccc(O)cc2)NC(=O)[C@H](Cc2c[nH]c3ccccc23)NC(=O)[C@H](CO)NC(=O)[C@H](CC(N)=O)NC(=O)[C@H](C)N(C)C(=O)C[C@@H](C(=O)N2CCCC2)NC(=O)[C@H](Cc2c[nH]cn2)NC(=O)CNC(=O)[C@H](Cc2c[nH]c3ccccc23)NC1=O` [PP15] (HELM PEPTIDE1{[meA].N.S.W.Y.I.N.I.W.G.H.D.[C1CCN([*:1])C1]}$PEPTIDE1,PEPTIDE1,1:R1-12:R3$$$V2.0) are 5.07, 5.25 and 4.86.
Consider `CC[C@H](C)[C@@H]1NC(=O)[C@H](CCCCN)NC(=O)[C@H](Cc2ccc(O)cc2)NC(=O)[C@H](Cc2ccccc2)NC(=O)[C@H](C(C)C)NC(=O)[C@H](C)N(C)C(=O)C[C@@H](C(=O)N2CCCC2)NC(=O)[C@H](Cc2c[nH]c3ccccc23)NC(=O)[C@H](CC(N)=O)NC(=O)[C@H](Cc2ccc(O)cc2)NC(=O)[C@H](Cc2c[nH]c3ccccc23)NC1=O` [PP19] (HELM PEPTIDE1{[meA].V.F.Y.K.I.W.Y.N.W.D.[C1CCN([*:1])C1]}$PEPTIDE1,PEPTIDE1,1:R1-11:R3$$$V2.0), for which the pIC50 in assay [1] (setting [4]) is 5.43; in assay [2] (setting [5]), 5.27; in assay [3] (setting [6]), 5.62.
As to `CC[C@H](C)[C@@H]1NC(=O)[C@H](CO)NC(=O)[C@H](CCCNC(=N)N)NC(=O)[C@H](Cc2ccc(O)cc2)NC(=O)[C@H](Cc2ccc(O)cc2)NC(=O)[C@H](Cc2c[nH]c3ccccc23)NC(=O)[C@H](CO)NC(=O)[C@H](CCC(N)=O)NC(=O)[C@H](Cc2ccc(O)cc2)NC(=O)[C@H](CC(N)=O)NC(=O)[C@H](C)N(C)C(=O)C[C@@H](C(=O)N2CCCC2)NC(=O)[C@H](Cc2c[nH]c3ccccc23)NC1=O` [PP10] (HELM PEPTIDE1{[meA].N.Y.Q.S.W.Y.Y.R.S.I.W.D.[C1CCN([*:1])C1]}$PEPTIDE1,PEPTIDE1,1:R1-13:R3$$$V2.0), the pIC50 was 6.70 in assay [1] (setting [4]), 6.30 in assay [2] (setting [5]) and 5.01 in assay [3] (setting [6]).
Regarding `CC[C@H](C)[C@@H]1NC(=O)[C@H](CC(=O)O)NC(=O)[C@H](C)N(C)C(=O)C[C@@H](C(=O)N2CCCC2)NC(=O)[C@H](Cc2c[nH]c3ccccc23)NC(=O)[C@H](CC(=O)O)NC(=O)[C@H](Cc2c[nH]c3ccccc23)NC(=O)[C@H](Cc2ccc(O)cc2)NC(=O)[C@H](CC(=O)O)NC(=O)[C@H](Cc2ccccc2)NC(=O)[C@H](Cc2c[nH]c3ccccc23)NC1=O` [PP17] (HELM PEPTIDE1{[meA].D.I.W.F.D.Y.W.D.W.D.[C1CCN([*:1])C1]}$PEPTIDE1,PEPTIDE1,1:R1-11:R3$$$V2.0), the pIC50 in assay [1] (setting [4]) is greater than 7.22; in assay [2] (setting [5]), 6.30; in assay [3] (setting [6]), greater than 7.22.
Take `CC[C@H](C)[C@@H]1NC(=O)[C@H](Cc2c[nH]c3ccccc23)NC(=O)[C@H](CCC(N)=O)NC(=O)[C@H](Cc2ccc(O)cc2)NC(=O)[C@H](C(C)C)NC(=O)[C@H](C)NC(=O)[C@H](Cc2ccc(O)cc2)NC(=O)[C@H](CCCNC(=N)N)NC(=O)[C@H](C)N(C)C(=O)C[C@@H](C(=O)N2CCCC2)NC(=O)[C@@H]2CCCN2C(=O)[C@H](Cc2ccc(O)cc2)NC1=O` [PP12] (HELM PEPTIDE1{[meA].R.Y.A.V.Y.Q.W.I.Y.P.D.[C1CCN([*:1])C1]}$PEPTIDE1,PEPTIDE1,1:R1-12:R3$$$V2.0): the pIC50 in assay [1] (setting [4]) was 4.90; in assay [2] (setting [5]) it was 5.17; in assay [3] (setting [6]), less than 4.21.
For `CC[C@H](C)[C@@H]1NC(=O)[C@H](CCCNC(=N)N)NC(=O)[C@H](Cc2ccc(O)cc2)NC(=O)[C@H](Cc2c[nH]c3ccccc23)NC(=O)[C@H](CO)NC(=O)[C@H](CC(N)=O)NC(=O)[C@H](C)N(C)C(=O)C[C@@H](C(=O)N2CCCC2)NC(=O)[C@H](CC(C)C)NC(=O)CNC(=O)[C@H](Cc2c[nH]c3ccccc23)NC1=O` [PP22] (HELM PEPTIDE1{[meA].N.S.W.Y.R.I.W.G.L.D.[C1CCN([*:1])C1]}$PEPTIDE1,PEPTIDE1,1:R1-11:R3$$$V2.0), the figures for the pIC50 in assay [1] (setting [4]), in assay [2] (setting [5]) and in assay [3] (setting [6]) were 4.61, 4.82 and 4.94, respectively.
The corresponding values for `CC[C@H](C)[C@@H]1NC(=O)[C@H](CCCCN)NC(=O)[C@H](Cc2ccc(O)cc2)NC(=O)[C@H](Cc2c[nH]c3ccccc23)NC(=O)[C@H](CO)NC(=O)[C@H](CC(N)=O)NC(=O)[C@H](C)N(C)C(=O)C[C@@H](C(=O)N2CCCC2)NC(=O)[C@H](CC(C)C)NC(=O)CNC(=O)[C@H](Cc2c[nH]c3ccccc23)NC1=O` [PP21] (HELM PEPTIDE1{[meA].N.S.W.Y.K.I.W.G.L.D.[C1CCN([*:1])C1]}$PEPTIDE1,PEPTIDE1,1:R1-11:R3$$$V2.0) are 4.87, 4.71 and 5.25.
For `CC(C)[C@@H]1NC(=O)[C@H](CCCCN)NC(=O)[C@H](Cc2ccc(O)cc2)NC(=O)[C@H](Cc2c[nH]c3ccccc23)NC(=O)[C@H](CO)NC(=O)[C@H]([C@@H](C)O)NC(=O)[C@H](C)N(C)C(=O)C[C@@H](C(=O)N2CCCC2)NC(=O)[C@H](CCC(N)=O)NC(=O)CNC(=O)[C@H](Cc2c[nH]c3ccccc23)NC(=O)[C@H](CC(N)=O)NC1=O` [PP1] (HELM PEPTIDE1{[meA].T.S.W.Y.K.V.N.W.G.Q.D.[C1CCN([*:1])C1]}$PEPTIDE1,PEPTIDE1,1:R1-12:R3$$$V2.0), the pIC50 in assay [1] (setting [7]) was 4.26; in assay [2] (setting [8]), 4.55; in assay [3] (setting [9]), less than 4.21; in assay [3] (setting [6]), less than 4.21.
For `CC[C@H](C)[C@@H]1NC(=O)[C@H](CCCCN)NC(=O)[C@H](Cc2ccccc2)NC(=O)[C@H](Cc2c[nH]c3ccccc23)NC(=O)[C@H](CO)NC(=O)[C@H](CO)NC(=O)[C@H](CC(N)=O)NC(=O)[C@@H]2CCCN2C(=O)[C@@H](C)N(C)C(=O)C[C@@H](C(=O)N2CCCC2)NC(=O)[C@H](Cc2c[nH]c3ccccc23)NC1=O` [PP6] (HELM PEPTIDE1{[C[C@H](C(=O)[*:2])N(C)[*:1]].P.N.S.S.W.F.K.I.W.D.[C1CCN([*:1])C1]}$PEPTIDE1,PEPTIDE1,1:R1-11:R3$$$V2.0), the pIC50 in assay [1] (setting [7]) was 4.88; in assay [2] (setting [8]) it was 4.77; in assay [3] (setting [9]), 4.72.
Turning to `CC[C@H](C)[C@@H]1NC(=O)[C@H](Cc2ccc(O)cc2)NC(=O)[C@H](C)N(C)C(=O)C[C@@H](C(=O)N2CCCC2)NC(=O)[C@H](CC(C)C)NC(=O)[C@H](CC(=O)O)NC(=O)CNC(=O)[C@H](Cc2ccccc2)NC(=O)[C@H](Cc2ccccc2)NC(=O)[C@H](CC(=O)O)NC(=O)[C@H](Cc2c[nH]c3ccccc23)NC1=O` [PP4] (HELM PEPTIDE1{[meA].Y.I.W.D.F.F.G.D.L.D.[C1CCN([*:1])C1]}$PEPTIDE1,PEPTIDE1,1:R1-11:R3$$$V2.0), the pIC50 in assay [1] (setting [7]) was 4.21; in assay [2] (setting [8]), 4.71; in assay [3] (setting [9]), 4.61.
